The results in this text go back to publication PMC6424957 (Scientific Reports, 2019).

Experiment [1] addresses T1, porcine liver carboxylesterase (CaE) (Sus scrofa, UniProt Q29550).
T1 sequence (Q29550 19-566): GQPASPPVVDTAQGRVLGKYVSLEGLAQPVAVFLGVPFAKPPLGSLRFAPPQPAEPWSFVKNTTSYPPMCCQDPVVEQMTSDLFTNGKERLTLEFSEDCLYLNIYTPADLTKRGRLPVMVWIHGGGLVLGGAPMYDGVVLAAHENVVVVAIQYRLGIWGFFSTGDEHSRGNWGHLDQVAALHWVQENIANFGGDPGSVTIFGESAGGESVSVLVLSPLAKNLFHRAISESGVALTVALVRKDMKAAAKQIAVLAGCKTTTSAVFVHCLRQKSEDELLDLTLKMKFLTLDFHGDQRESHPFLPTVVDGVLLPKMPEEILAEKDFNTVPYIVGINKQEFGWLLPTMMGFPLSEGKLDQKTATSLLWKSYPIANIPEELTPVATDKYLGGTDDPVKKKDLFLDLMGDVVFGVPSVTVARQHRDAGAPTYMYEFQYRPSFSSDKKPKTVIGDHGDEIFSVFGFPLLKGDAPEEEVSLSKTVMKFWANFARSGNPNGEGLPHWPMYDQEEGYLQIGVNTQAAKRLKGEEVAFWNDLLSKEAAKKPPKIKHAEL
Nature of the experiment: CaE inhibition (4-nitrophenyl acetate hydrolysis). Conditions: 20 µM, mean ± SEM, n ≥ 3, n.a. = not active at 20 µM. In kind it is biochemical. On the procedure: (§1) Acetylcholinesterase (AChE, EC 3.1.1.7, from human erythrocyte and E. electricus (EeAChE) (type VI-S), butyrylcholinesterase (BChE, EC 3.1.1.8, from equine serum), carboxylesterase (CaE, EC 3.1.1.1, from porcine liver), acetylthiocholine iodide (ATCh), butylthiocholine iodide (BTCh), 5,5′-dithiobis-(2-nitrobenzoic acid) (DTNB), 4-nitrophenyl acetate (4-NPA), were purchased from Sigma-Aldrich (Germany).
(§2) AChE and BChE activities were measured by the Ellman method as described earlier. The assay solution consisted of 0.1 M K/Na phosphate buffer pH 7.5, 25 °C with the addition of 0.33 mM DTNB, 0.02 unit/mL of AChE or BChE, and 1 mM of substrate (ATCh or BTCh, respectively). The assays were carried out with a reagent blank containing all components except AChE or BChE to account for non-enzymatic hydrolysis of substrate. In addition, an enzyme blank was included that contained all components except substrate to account for non-substrate sulfhydryl groups. […] The assay solution consisted of 0.1 M K/Na phosphate buffer pH 8.0, 25 °C with the addition of 1 mM 4-nitrophenyl acetate and 0.02 unit/mL of CaE. Assays were carried out with a blank containing all components except CaE.
(§3) The test compounds were dissolved in DMSO; the incubation mixture contained 2% (v/v) of the solvent. […] The test compounds were added to the assay solution and preincubated at 25°C with the enzymes for 5 min followed by the addition of substrate. A parallel control was made for the assay solution with no inhibitor. […] Each experiment was performed three times. The results were expressed as the mean ± SEM. The reaction rates in the presence and absence of inhibitor were compared, and the percent of residual enzyme activity due to the presence of test compounds was calculated.

In experiment [2] the target is T2, peripheral anionic site (PAS) of EeAChE (Electrophorus electricus, UniProt O42275).
T2 construct: from human erythrocyte and E. electricus (EeAChE) (type VI-S); purchased Sigma-Aldrich (Germany) type VI-S; host or cells: Electrophorus electricus tissue
The class given is binding. Conditions: EeAChE 7 μM, propidium iodide 8 μM. From the text:
The fluorescent assay used to evaluate competitive propidium iodide displacement from the PAS of AChE is commonly used as primary screening method of AChE pro-aggregation activity inhibitors. Propidium iodide is a selective ligand for the PAS of AChE responsible for Aβ binding.
EeAChE was used owing to its high degree of purification, high activity, and lower cost than human AChE. […] The fluorescence intensity of propidium iodide bound with AChE increases several times.
To determine the degree of displacement (% displacement) of propidium iodide from the PAS of AChE, EeAChE (final concentration 7 μM) was incubated with the test compound at a concentration of 3 and 20 μM in 1 mM Tris-HCl buffer pH 8.0, 25 °C for 15 min. Then, propidium iodide solution (final concentration 8 μM) was added, the samples were incubated for 15 min and the fluorescence spectrum (530 nm (excitation) and 600 nm (emission)) was taken. Donepezil and tacrine were used as reference compounds. The blank contained propidium iodide of the same concentration in 1 mM Tris-HCl buffer pH 8.0. The measurements were carried out in triplicate on a microplate reader FLUOStar Optima (BMG Labtech Germany).
The degree of displacement (% displacement) of propidium iodide from the peripheral anionic site of AChE was calculated by the following formula: %Displacement=100−(IFAChE+Propidium+inhibitor/IFAChE+Propidium)[…], where IFAChE + Propidium is the fluorescence intensity of the propidium associated with AChE in the absence of the test compound (taken as 100%), and IFAChE + Propidium + inhibitor is the fluorescence intensity of the propidium associated with AChE in the presence of the test compound.

The subject of experiment [3] is isolated rat liver mitochondria. Nature of the experiment: Inhibition of iron-induced lipid peroxidation (TBARs). The following applies: read-out: IC50 of Fe3+-induced LP, LP induced by 0.5 mM Fe3+, mean ± SEM, n ≥ 3.
Experiment [4] is described as follows: Oxygen radical absorbance capacity assay (ORAC-FL). Conditions: ORAC-FL, AAPH, fluorescein, 37 °C, pH 7.4; Trolox taken as 1.
Procedure: The ability of the conjugates to reduce the amount of peroxyl radicals as another characteristic of the antioxidant activity of the compounds was determined using the oxygen radical absorbance capacity by fluorescence (ORAC-FL) method using fluorescein (FL) as a fluorescent probe. The method is based on measuring the decrease in the intensity of fluorescence with time, which characterizes the degree of decay of the fluorescent probe under the influence of peroxyl radicals. In the presence of antioxidants, the degree of decay of the fluorescent probe decreases and, accordingly, the fluorescence time increases.
The ability of compounds to scavenge peroxyl radicals was characterized by the value of the Trolox equivalent (TE, μmol of Trolox per μmol of the tested compound), which is equal to the ratio of the Trolox concentration to the tested compound concentration having the same fluorescence intensity. Peroxyl radical scavenging capacity of Trolox is taken as one (1)[67],[68].
2,2′-Azobis-(amidinopropane) dihydrochloride (AAPH), (±)-6-hydroxy-2,5,7,8-tetramethylchromane-2-carboxylic acid (Trolox) and fluorescein (FL) were purchased from Sigma-Aldrich. The reaction was carried out at 37 °C in 75 mM K,Na phosphate buffer (pH 7.4), and the final reaction mixture was 200 µL. The tested compounds and Trolox standard were dissolved in DMSO to 10 mM and further diluted in 75 mM K,Na phosphate buffer (pH 7.4). […] The blank was composed of 20 µL 75 mM K,Na phosphate buffer (pH 7.4) containing 2% (v/v) DMSO, 120 µL FL and 60 µL AAPH, and was added in each assay. Antioxidant (the test compound or Trolox, 20 µL) and FL (120 µL, final concentration: 70 nM) solutions were placed in a black 96-well microplate and were pre-incubated for 15 min at 37 °C. AAPH solution (60 µL, final concentration 12 mM) was then added rapidly using a multichannel pipette. The fluorescence was recorded every minute for 100 min. A Trolox standard curve was also obtained in each assay. All reactions were carried out in triplicate and at least three different assays were performed for each sample.
Antioxidant curves (fluorescence vs. time) were first normalized to the curve of the blank (without antioxidant) corresponding to the same assay, and the area under the fluorescence decay curve (AUC) was calculated. The net AUC corresponding to a sample was calculated by subtracting the AUC corresponding to the blank. Regression equations were calculated by plotting the net AUC against the antioxidant concentration. The ORAC value was obtained by dividing the slope of the latter curve by the slope of the Trolox curve obtained in the same assay. […] Data were expressed as means ± SEM.
Experiment [5] addresses T3, Electrophorus electricus AChE (EeAChE) (Electrophorus electricus, UniProt O42275).
T3 construct: from human erythrocyte and E. electricus (EeAChE) (type VI-S); purchased Sigma-Aldrich (Germany) type VI-S; host or cells: Electrophorus electricus tissue
Nature of the experiment: biochemical. In kind it is biochemical. The method, then:
as §1, §2, §3

The target of experiment [6] is T4, human erythrocyte acetylcholinesterase (AChE) (Homo sapiens, UniProt P22303).
T4 construct: Acetylcholinesterase (AChE, EC 3.1.1.7, from human erythrocyte); purchased Sigma-Aldrich (Germany); host or cells: human erythrocytes
Nature of the experiment: biochemical. The class given is biochemical. Conditions: mean ± SEM, n ≥ 3. On the procedure: as §1, §2, §3

Experiment [7] has as its target T5, equine serum butyrylcholinesterase (BChE) (Equus caballus, UniProt P81908).
T5 construct: butyrylcholinesterase (BChE, EC 3.1.1.8, from equine serum); purchased Sigma-Aldrich (Germany); host or cells: equine serum
The experiment is described as follows: biochemical. The class given is biochemical. Conditions: mean ± SEM, n ≥ 3. On the procedure:
as §1, §2, §3

A short description of experiment [8]: ABTS radical cation scavenging assay. Conditions: 1 h incubation; for ABTS·+ scavenging activity, TEAC value: Trolox equivalent antioxidant capacity, ratio of slopes compound/Trolox. On the procedure: This assay is based on the production of a stable dark green ABTS cation-radical (ABTS^·+) by incubating ABTS ([2,2′-azino-bis(3-eth-ylbenzothiazoline-6-sulfonic acid diammonium salt)) with potassium persulfate. […] The ABTS radical-scavenging activity of the compounds was measured according to an established method[66] with some modifications, at 30 °С in the dark; incubation time was 1 hour. […] The results were expressed as TEAC values (Trolox equivalent antioxidant capacity) calculated by dividing the slope of ABTS^·+ concentration decrease versus the antioxidant concentration by the slope of the Trolox plot.
Radical scavenging activity of the compounds was assessed using an ABTS radical decolorization assay[66] with some minor modifications. ABTS (2,2′-azino-bis-(3-ethylbenzothiazoline-6-sulfonic acid) diammonium salt) was purchased from TCI (Tokyo, Japan); potassium persulfate (di-potassium peroxodisulfate) and Trolox (6-hydroxy-2,5,7,8-tetramethychroman-2-carboxylic acid were obtained from Sigma-Aldrich Chemical Co. (St. Louis, MO, USA). Ethanol was HPLC grade. Aqueous solutions were prepared using deionized water.
Trolox was used as the antioxidant standard. A 5 mM solution of Trolox was prepared in DMSO for use as stock. Fresh working solutions of known concentrations (1–100 μM) were prepared on the day of experiments and used for calibration and as positive controls for ABTS radical cation (ABTS^•+) scavenging activity. ABTS was dissolved in deionized water to a 7 mM concentration. […] Fresh working ABTS^•+ solution was prepared for each assay.
The radical scavenging capacity of the compounds was analyzed by mixing 10 μl of compound with 240 μl of ABTS^•+ working solution. […] Ethanol blanks were run in each assay. Values were obtained from three replicates of each sample and three independent experiments.
Antioxidant capacity as a Trolox equivalent (TEAC values) was determined as the ratio between the slopes obtained from the linear correlation for concentrations of test compounds and Trolox with absorbance of ABTS radical.

T2 sequence (O42275 24-633): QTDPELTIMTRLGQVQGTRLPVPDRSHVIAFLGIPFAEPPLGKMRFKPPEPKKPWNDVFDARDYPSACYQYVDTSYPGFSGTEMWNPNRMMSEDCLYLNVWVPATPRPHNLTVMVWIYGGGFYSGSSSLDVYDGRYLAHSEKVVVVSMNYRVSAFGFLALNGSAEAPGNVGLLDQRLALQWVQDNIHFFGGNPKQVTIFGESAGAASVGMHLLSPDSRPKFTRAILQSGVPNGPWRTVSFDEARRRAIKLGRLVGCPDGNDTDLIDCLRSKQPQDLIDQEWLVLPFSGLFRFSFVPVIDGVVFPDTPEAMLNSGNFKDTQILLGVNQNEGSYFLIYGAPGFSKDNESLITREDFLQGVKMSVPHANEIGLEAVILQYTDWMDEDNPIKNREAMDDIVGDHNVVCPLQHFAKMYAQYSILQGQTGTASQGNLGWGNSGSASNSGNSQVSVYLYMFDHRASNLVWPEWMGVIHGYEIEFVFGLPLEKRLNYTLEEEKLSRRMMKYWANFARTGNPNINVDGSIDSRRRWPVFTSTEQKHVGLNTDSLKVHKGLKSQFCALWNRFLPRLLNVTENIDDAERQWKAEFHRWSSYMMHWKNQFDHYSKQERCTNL
T4 sequence (P22303 32-617 isoform P22303-2 limits assumed): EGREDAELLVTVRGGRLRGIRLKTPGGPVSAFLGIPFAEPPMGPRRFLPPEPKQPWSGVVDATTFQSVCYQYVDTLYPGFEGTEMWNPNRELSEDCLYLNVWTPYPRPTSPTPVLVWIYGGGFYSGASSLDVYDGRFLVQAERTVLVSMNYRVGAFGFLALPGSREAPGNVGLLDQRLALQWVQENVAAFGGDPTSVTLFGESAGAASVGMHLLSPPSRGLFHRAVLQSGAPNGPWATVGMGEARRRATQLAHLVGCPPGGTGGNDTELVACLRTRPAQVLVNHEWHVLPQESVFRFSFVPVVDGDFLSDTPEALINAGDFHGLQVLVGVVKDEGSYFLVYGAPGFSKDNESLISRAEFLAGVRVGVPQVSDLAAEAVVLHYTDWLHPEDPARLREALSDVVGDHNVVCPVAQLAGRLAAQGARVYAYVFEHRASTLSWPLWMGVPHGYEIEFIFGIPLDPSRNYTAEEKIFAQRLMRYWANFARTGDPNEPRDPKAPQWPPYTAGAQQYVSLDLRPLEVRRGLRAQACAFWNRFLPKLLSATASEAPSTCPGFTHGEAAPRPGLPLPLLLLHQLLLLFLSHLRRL
T3 sequence (O42275 24-633): as the sequence (O42275 24-633) above
T5 sequence (P81908 whole entry): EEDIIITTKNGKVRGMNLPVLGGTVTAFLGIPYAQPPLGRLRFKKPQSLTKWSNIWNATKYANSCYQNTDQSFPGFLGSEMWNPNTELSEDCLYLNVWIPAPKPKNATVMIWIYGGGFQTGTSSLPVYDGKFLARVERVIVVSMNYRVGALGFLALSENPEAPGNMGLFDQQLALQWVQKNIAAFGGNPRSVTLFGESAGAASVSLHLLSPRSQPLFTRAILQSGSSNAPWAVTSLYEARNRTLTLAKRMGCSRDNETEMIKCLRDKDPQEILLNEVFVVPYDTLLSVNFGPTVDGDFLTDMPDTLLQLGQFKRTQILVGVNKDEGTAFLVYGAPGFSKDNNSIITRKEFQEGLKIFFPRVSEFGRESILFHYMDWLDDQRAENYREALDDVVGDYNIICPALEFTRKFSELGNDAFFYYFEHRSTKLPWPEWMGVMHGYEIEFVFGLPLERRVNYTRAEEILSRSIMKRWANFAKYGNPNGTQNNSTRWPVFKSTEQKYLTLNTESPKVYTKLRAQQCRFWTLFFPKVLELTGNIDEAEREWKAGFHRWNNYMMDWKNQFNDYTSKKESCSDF

As a reminder, the IC50 is the point on the concentration scale where inhibition reaches its midpoint. For the molecule `Cc1ccc2c(c1)c1c(n2CCc2ccc(C)nc2)CCN(C)C1` [Dimebon, reference compound], the “% inhibition of CaE at 20 µM” value in experiment [1] was “n.а”. Also, the “% Displacement of propidium iodide, 3 µM” value in experiment [2] (compound 3 µM) is 2.8 ± 0.2%. For the same molecule, the “% Displacement of propidium iodide, 20 µM” value in experiment [2] (compound 20 µM) stood at 6.0 ± 0.5%. Moreover, the concentration for half-maximal inhibition (IC50) was greater than 30 µM in experiment [3], 32.4 ± 3.5 µM in experiment [5], 36.3 ± 3.59 µM in experiment [6] and 5.76 ± 0.51 µM in experiment [7]. The “ORAC TE value” in experiment [4] is listed as 1.07 ± 0.08 µmol Trolox/ µmol comp. Moreover, in experiment [8], the “ABTS·+ scavenging activity, TEAC value” came out at 0.004.
`Cc1c(C)c2c(c(C)c1O)CCC(C)(C(=O)O)O2` (stereo not drawn) [Trolox, 6-hydroxy-2,5,7,8-tetramethychroman-2-carboxylic acid, reference compound]: in experiment [4], the “ORAC TE value” is 1.0 µmol Trolox/ µmol comp. In addition, in experiment [8], the “ABTS·+ scavenging activity, TEAC value” was found to be 1.0. This molecule also gave an IC50 in experiment [8] (concentration reducing ABTS·+ by 50%) of 20.4 ± 1.7 µM.
